According to ChEMBL document CHEMBL4229522, “Inhibition of the LOX enzyme family members with old and new ligands. Selectivity analysis revisited” (Bioorg Med Chem Lett, 2018):

Legend:
Protein-lysine 6-oxidase = molecular target: T1, Protein-lysine 6-oxidase (Homo sapiens, UniProt P28300); assay: Inhibition of recombinant human LOX expressed in HEK293 cells using diaminopentane as substrate preincubated for 30 mins followed by substrate addition measured after 1 hr by fluorimetric method; format: cell-based
T1 sequence (P28300 whole entry): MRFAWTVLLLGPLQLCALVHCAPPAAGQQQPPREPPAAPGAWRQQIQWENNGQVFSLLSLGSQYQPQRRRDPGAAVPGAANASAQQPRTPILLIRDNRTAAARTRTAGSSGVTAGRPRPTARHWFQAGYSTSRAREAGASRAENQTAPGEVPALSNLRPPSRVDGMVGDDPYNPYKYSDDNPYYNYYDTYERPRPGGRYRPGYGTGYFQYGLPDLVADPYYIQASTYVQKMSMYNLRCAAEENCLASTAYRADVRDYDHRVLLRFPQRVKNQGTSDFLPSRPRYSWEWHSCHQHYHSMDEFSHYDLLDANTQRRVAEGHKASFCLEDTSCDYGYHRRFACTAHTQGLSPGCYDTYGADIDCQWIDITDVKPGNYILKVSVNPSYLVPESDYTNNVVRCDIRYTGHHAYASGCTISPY

Lysyl oxidase homolog 2 = molecular target: T2, Lysyl oxidase homolog 2 (Homo sapiens, UniProt Q9Y4K0); assay: Inhibition of recombinant LOXL2 (unknown origin) expressed in NS0 cells using diaminopentane as substrate preincubated for 30 mins followed by substrate addition measured after 1 hr by fluorimetric method
T2 sequence (Q9Y4K0 whole entry): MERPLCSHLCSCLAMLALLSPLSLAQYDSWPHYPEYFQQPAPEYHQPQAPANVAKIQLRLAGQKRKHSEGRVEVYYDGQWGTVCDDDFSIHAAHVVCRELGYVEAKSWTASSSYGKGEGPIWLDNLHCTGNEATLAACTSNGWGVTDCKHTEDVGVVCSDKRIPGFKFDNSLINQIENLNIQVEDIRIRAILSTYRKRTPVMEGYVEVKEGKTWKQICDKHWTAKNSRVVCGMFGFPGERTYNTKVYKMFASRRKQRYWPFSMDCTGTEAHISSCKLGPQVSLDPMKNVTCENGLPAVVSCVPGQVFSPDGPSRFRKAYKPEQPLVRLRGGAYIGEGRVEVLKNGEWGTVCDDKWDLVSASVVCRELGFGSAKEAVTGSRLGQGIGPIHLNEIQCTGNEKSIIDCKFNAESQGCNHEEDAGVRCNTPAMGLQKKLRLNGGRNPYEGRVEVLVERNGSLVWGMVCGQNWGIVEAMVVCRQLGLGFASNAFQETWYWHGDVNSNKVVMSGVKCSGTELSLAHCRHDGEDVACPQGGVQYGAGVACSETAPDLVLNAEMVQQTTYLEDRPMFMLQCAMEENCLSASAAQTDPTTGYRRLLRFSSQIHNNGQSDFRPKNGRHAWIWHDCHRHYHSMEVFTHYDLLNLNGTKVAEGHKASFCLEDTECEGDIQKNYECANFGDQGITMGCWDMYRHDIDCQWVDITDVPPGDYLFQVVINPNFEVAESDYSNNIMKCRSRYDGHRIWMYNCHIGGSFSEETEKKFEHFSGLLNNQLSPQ

Lysyl oxidase homolog 3 = molecular target: T3, Lysyl oxidase homolog 3 (Homo sapiens, UniProt P58215); assay: Inhibition of recombinant human LOXL3 expressed in CHO cells using diaminopentane as substrate preincubated for 30 mins followed by substrate addition measured after 1 hr by fluorimetric method
T3 sequence (P58215 whole entry): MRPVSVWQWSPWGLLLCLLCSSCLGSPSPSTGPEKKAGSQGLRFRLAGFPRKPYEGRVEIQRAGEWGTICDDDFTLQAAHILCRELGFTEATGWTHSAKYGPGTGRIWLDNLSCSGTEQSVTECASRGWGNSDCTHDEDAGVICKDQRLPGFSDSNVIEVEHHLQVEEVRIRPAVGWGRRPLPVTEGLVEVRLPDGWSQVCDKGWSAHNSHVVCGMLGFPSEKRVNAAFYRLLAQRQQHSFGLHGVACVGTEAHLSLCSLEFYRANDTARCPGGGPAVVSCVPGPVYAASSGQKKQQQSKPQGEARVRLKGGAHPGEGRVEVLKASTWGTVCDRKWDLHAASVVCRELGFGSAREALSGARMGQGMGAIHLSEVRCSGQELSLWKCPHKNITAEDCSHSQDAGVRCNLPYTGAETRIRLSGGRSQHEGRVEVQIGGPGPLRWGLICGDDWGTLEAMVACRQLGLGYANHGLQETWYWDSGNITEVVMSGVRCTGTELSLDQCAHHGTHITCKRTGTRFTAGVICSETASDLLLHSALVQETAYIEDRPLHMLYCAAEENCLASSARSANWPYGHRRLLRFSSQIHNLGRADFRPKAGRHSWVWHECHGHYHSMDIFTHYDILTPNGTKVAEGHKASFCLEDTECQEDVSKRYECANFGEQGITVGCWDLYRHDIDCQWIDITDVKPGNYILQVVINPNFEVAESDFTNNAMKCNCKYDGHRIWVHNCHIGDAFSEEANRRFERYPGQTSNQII

Lysyl oxidase homolog 4 = molecular target: T4, Lysyl oxidase homolog 4 (Homo sapiens, UniProt Q96JB6); assay: Inhibition of recombinant human LOXL4 expressed in baculovirus infected insect cells using diaminopentane as substrate preincubated for 30 mins followed by substrate addition measured after 1 hr by fluorimetric method
T4 sequence (Q96JB6 whole entry): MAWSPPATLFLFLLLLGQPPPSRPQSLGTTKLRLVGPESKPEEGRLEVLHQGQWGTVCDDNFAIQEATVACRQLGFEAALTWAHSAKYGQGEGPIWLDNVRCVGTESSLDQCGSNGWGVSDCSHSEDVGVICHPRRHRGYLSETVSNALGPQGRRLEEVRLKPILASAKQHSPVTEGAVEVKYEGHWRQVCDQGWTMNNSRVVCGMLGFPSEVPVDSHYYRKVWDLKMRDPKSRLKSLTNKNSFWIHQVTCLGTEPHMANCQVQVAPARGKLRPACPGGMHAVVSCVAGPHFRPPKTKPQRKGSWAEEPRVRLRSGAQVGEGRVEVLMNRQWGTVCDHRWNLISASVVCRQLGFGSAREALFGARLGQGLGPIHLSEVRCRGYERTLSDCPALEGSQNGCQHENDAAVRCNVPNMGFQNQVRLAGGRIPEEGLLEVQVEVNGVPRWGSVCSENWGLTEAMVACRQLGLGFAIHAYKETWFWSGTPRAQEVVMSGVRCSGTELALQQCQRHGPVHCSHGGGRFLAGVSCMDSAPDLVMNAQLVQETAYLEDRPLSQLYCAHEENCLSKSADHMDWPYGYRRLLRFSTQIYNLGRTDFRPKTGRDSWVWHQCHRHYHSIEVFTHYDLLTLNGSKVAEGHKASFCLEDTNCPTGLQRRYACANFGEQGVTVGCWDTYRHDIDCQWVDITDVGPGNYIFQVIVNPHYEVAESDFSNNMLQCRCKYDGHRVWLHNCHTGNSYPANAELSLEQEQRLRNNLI

[1] = molecular target: T5, Lysyl oxidase homolog 2 (Homo sapiens) (UniProt Q9Y4K0); assay: Inhibition of recombinant LOXL2 (unknown origin) expressed in NS0 cells at 10 uM using diaminopentane as substrate preincubated for 30 mins followed by substrate addition measured after 1 hr by fluorimetric method relative to control
T5 sequence (whole entry): T2 sequence (Q9Y4K0 whole entry)

[2] = molecular target: T6, Lysyl oxidase homolog 4 (Homo sapiens) (UniProt Q96JB6); assay: Inhibition of recombinant human LOXL4 expressed in baculovirus infected insect cells at 10 uM using diaminopentane as substrate preincubated for 30 mins followed by substrate addition measured after 1 hr by fluorimetric method relative to control
T6 sequence (whole entry): T4 sequence (Q96JB6 whole entry)

SMILES	IC50 (Protein-lysine 6-oxidase)	IC50 (Lysyl oxidase homolog 2)	IC50 (Lysyl oxidase homolog 3)	IC50 (Lysyl oxidase homolog 4)	inhibition [1]	inhibition [2]
CN(C)C(=S)SSC(=S)N(C)C [THIRAM]	1.04 µM	0.17 µM	0.11 µM	0.18 µM	< 40%	< 40%
O=c1c2cccnc2[nH]c(=S)n1-c1ccccc1	> 100 µM	75 µM	18 µM	> 100 µM	< 40%	< 40%
CC(C)(C)C1=NN(c2ccccc2)C(=O)C1	75 µM	> 100 µM	> 100 µM	> 100 µM	< 40%	< 40%
Cc1cc(-c2ccc3c(=O)n(-c4ccccc4)[nH]c3n2)c(C)o1		3.8 µM		55 µM	< 40%	< 40%
CCN(CC)C(=S)SSC(=S)N(CC)CC [DISULFIRAM]	0.32 µM	0.15 µM	0.093 µM	0.059 µM	< 40%	< 40%
N#CCCN	> 100 µM	0.073 µM	0.17 µM	> 100 µM		< 40%
COc1ccccc1-c1cc(=O)c2c(=O)n(-c3ccccc3)[nH]c2[nH]1		45 µM		> 100 µM	< 40%	< 40%
CCOC(=O)c1sc(N/N=C2\C(=O)N(c3ccccc3)N=C2N)c(C(=O)OCC)c1C		> 100 µM	> 100 µM	3.3 µM	< 40%	< 40%
O=c1c2ccc(-c3cccs3)nc2[nH]n1-c1ccccc1	> 100 µM	7.8 µM		> 100 µM	< 40%	< 40%
[O-][n+]1ccccc1S [PYRITHIONE]	33 µM	18 µM	12 µM	15 µM	< 40%	< 40%
CC1=NN(c2ccccc2)C(=O)C1C (stereo not drawn)	2.6 µM	2.1 µM	1.3 µM	2.1 µM	< 40%	< 40%
CCN1/C(=C2\C(=O)N(c3ccccc3)N=C2Nc2ccccc2)C=Cc2ccccc21		1 µM		> 100 µM	< 40%	< 40%
Cc1cc(C)c2c(=O)n(-c3ccccc3)[nH]c2n1	35 µM	25 µM	> 100 µM	> 100 µM	< 40%	< 40%
CC1=NN(c2ccccc2)C(=O)/C1=C/NNc1nnc(C)c(O)n1		34 µM		> 100 µM	< 40%	< 40%
